Reference: patent US10542757B2, “Compositions comprising a biological control agent and an insecticide” (priority 2012, dated 2020)

How the values were obtained:
Format in all cases: in vivo
[1] = system: larvae of the diamondback moth (Plutella xylostella); assay: Plutella xylostella spray test; settings: mortality, cabbage leaves sprayed, 0.05 ppm
Protocol: (§1) For all examples efficiencies of the compositions comprising at least one BCA and at least one specific insecticide has been determined by the “Colby-formula”: The expected efficacy of a given combination of two compounds is calculated as follows (see Colby, S. R., “Calculating Synergistic and antagonistic Responses of Herbicide Combinations”, Weeds 15, pp. 20-22, 1967):
(§2) • X is the efficacy expressed in % mortality of the untreated control for test compound A at a concentration of m ppm respectively m g/ha, • Y is the efficacy expressed in % mortality of the untreated control for test compound B at a concentration of n ppm respectively n g/ha, • E is the efficacy expressed in % mortality of the untreated control using the mixture of A and B at m and n ppm respectively m and n g/ha, then
(§3) If the observed insecticidal efficacy of the combination is higher than the one calculated as “E”, then the combination of the two compounds is more than additive, i.e., there is a synergistic effect.
(§4) To produce a suitable preparation of active compound, 1 part by weight of active compound is mixed with the stated amount of solvent and emulsifier, and the concentrate is diluted with emulsifier-containing water to the desired concentration. […]
After the specified period of time, the mortality in % is determined. […] The mortality values determined thus are recalculated using the Colby-formula (see above).

[2] = system: mustard beetle larvae (Phaedon cochleariae); assay: Phaedon cochleariae spray test; settings: mortality, Chinese cabbage leaf-disks sprayed
Protocol: as §1, §2, §3
(§5) To produce a suitable preparation of active compound, 1 part by weight of active compound is mixed with the stated amount of solvent and emulsifier, and the concentrate is diluted with emulsifier-containing water to the desired concentration. To produce a suitable preparation of a spore suspension the spores are diluted with emulsifier-containing water to the desired concentration.
Chinese cabbage (Brassica pekinensis) leaf-disks are sprayed with a preparation of the active ingredient of the desired concentration. Once dry, the leaf disks are infested with mustard beetle larvae (Phaedon cochleariae).
After the specified period of time, mortality in % is determined. 100% means all beetle larvae have been killed and 0% means none of the beetle larvae have been killed. The mortality values determined thus are recalculated using the Colby-formula (see above).

[3] = system: green peach aphid (Myzus persicae); assay: Myzus persicae spray test (MYZUPE); settings: mortality, Chinese cabbage leaf-disks sprayed
Protocol: as §1, §2, §3, §5
Chinese cabbage (Brassica pekinensis) leaf-disks infected with all instars of the green peach aphid (Myzus persicae), are sprayed with a preparation of the active ingredient of the desired concentration.
After the specified period of time, mortality in % is determined. 100% means all aphids have been killed; 0% means none of the aphids have been killed. The mortality values determined thus are recalculated using the Colby-formula (see above).

[4] = system: two spotted spidermite (Tetranychus urticae); assay: Tetranychus urticae spray test, OP-resistant; settings: mortality, French beans sprayed, 20 g ai/ha
Protocol: as §1, §2, §3, §4
(§6) After the specified period of time, mortality in % is determined. […] The mortality values determined thus are recalculated using the Colby-formula (see above).

[5] = system: caterpillars of the beet army worm (Spodoptera exigua); assay: Spodoptera exigua spray test; settings: mortality, cotton leaves sprayed, 0.1 ppm
Protocol: as §1, §2, §3, §4, §6

[6] = system: fall armyworm larvae (Spodoptera frugiperda); assay: Spodoptera frugiperda spray test; settings: mortality, maize leaf sections sprayed, 0.8 g ai/ha
Protocol: as §1, §2, §3
To produce a suitable preparation of the active compound, 1 part by weight of active compound is mixed with the stated amount of solvent and emulsifier, and the concentrate is diluted with emulsifier-containing water to the desired concentration. […]
as §6

In the case of `CNC(=O)c1cc(Cl)cc(C)c1NC(=O)c1cc(Br)nn1-c1ncccc1Cl` [Chlorantraniliprole (I231), Chlorantraniliprole], the “Efficacy in % after 3d” value [1] was 30%, the “Efficacy in % after 6d” value ([2]; 0.16 g ai/ha) was 0% and the “Efficacy in % after 6d” value ([2]; 0.8 g ai/ha) was 0%. For the same compound, the “Efficacy in % after 6d” value ([3]; 4 g/ha) was 0%.

With `CNC(=O)c1cc(C#N)cc(C)c1NC(=O)c1cc(Br)nn1-c1ncccc1Cl` [Cyantraniliprole (I232), Cyantraniliprole] the “Efficacy in % after 6d” value ([2]; 0.8 g ai/ha) was 33%, the “Efficacy in % after 6d” value [4] was 0% and the “Efficacy in % after 6d” value ([3]; 0.16 g/ha) was 0%.

`Cc1cc(C(F)(C(F)(F)F)C(F)(F)F)ccc1NC(=O)c1cccc(I)c1C(=O)NC(C)(C)CS(C)(=O)=O` [Flubendiamide (I233), Flubendiamide] was tested, and the “Efficacy in % after 2d” value ([2]; 100 g ai/ha, 2 d) was 0%, the “Efficacy in % after 3d” value [5] was 30% and the “Efficacy in % after 2d” value ([6]; 2 d) was 0%. The “Efficacy in % after 6d” value ([6]; 6 d) was 0% and the “Efficacy in % after 6d” value ([3]; 100 g/ha) was 0%.
